Patent US7514438B2, “Melanin concentrating hormone receptor antagonist” (Amgen, Inc., priority 2003, dated 2009)
pIC50, pKi: −log10 of the molar value. Read-outs that look alike come from different tables or passages of the source.

Assays:
[1] = target: T1, rat MCH 1 receptor (rMCH1R) (Rattus norvegicus, UniProt P97639); test: 125I-MCH ligand binding assay, rMCH; conditions: HEK 293 membranes, 0.2 nM 125I native-MCH
T1 construct: expressed in transfected cells; host or cells: HEK 293 (membranes)
Method in brief: (§1)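 HEK293 membranes expressing rat or human MCH1R (100 µg tissue) were incubated for 90 min at 30 °C with 0.2 nM 125I-native-MCH and test compound in HEPES/MgCl2/BSA buffer with protease inhibitors, pH 7.4. Non-specific binding used 1 µM cold MCH. Filter-bound radioactivity gave IC50 by nonlinear regression.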

[2] = target: T2, rat MCH1 receptor (Rattus norvegicus, UniProt P97639); test: HT-PS100 calcium mobilization functional assay; type: cell-based; design: expressed in transfected cells
[3] = target: T3, human MCH receptor (Homo sapiens, UniProt Q99705); test: hMCH FLIPR calcium mobilization assay; type: cell-based
T3 construct: expressed in transfected cells

[4] = target: T4, human MCH 1 receptor (hMCH1R) (Homo sapiens, UniProt Q99705); test: 125I-MCH ligand binding assay, hMCH; conditions: HEK 293 membranes, 0.2 nM 125I native-MCH
T4 construct: expressed in transfected cells; host or cells: HEK 293 (membranes)
Method in brief: as §1

[5] = target: T2, rat MCH1 receptor; test: rMCH FLIPR calcium mobilization assay (CHOK1-Gqi cells); type: cell-based; design: expressed in transfected cells; host or cells: CHOK1-Gqi; conditions: CHOK1-Gqi cells, rat MCH1 receptor
Procedure: Pharmacological analyses were conducted using either a HT-PS100 device (Axiom Biotechnologies, San Diego, Calif.), which provides high-resolution dose-response fluorometric measurements of [Ca^++]i mobilization, or using a FLIPR® device (Molecular Devices, Sunnyvale, Calif.).
Materials: Pharmacological analysis was conducted using a FLIPR® device (Molecular Devices, Sunnyvale, Calif.). CHOK1-Gqi cells were stably transfected with the rat MCH1 receptor and maintained under G418 antibiotic pressure. FLIPR® assay buffer consisted of phenol red-free DMEM+2.5 mM probenecid. […]. Test compounds were prepared as 10 mM stocks in 100% DMSO and diluted to a top end working concentration of 10 μM in 96 well black, flat bottom, collagen-I coated plates (Becton Dickinson, Bedford, Mass.).
Methods: CHOK1-Gqi cells stably expressing MCH1R were maintained in Dulbeco's modified Eagle's medium (GIBCO/Life Technologies, Rockville, Md.) supplemented with 2 mM glutamine and 10% dialyzed fetal bovine serum (HyCLone, Logan, Utah) at 37° C., 5% CO2. Cells were harvested by 10′ treatment with Versene (GIBCO/Life Technologies) followed by trituration, washing twice with cold (4° C.) hybridoma medium (Serum/Protein free, with L-glutamine, sodium bicarbonate, MOPS buffer) (Sigma-Aldrich Corp, St. Louis, Mo.) and replated onto 96 well black, flat bottom, collagen-I coated plates to a density of 10,000 cells/well. The cells were then loaded with the fluorescent calcium indicator Fura-2 (Molecular Probes, Eugene, Oreg.) at 1.6 μM for 60′ at room temperature. The loaded cells were then washed twice with 90 μl/well of wash buffer (1×HBSS, 20 mM HEPES, 2.5 mM probenecid).
Receptor-stimulated intracellular calcium responses were detected using FLIPR® by monitoring increases in the Fura-2 fluorescence response.
Test compounds were screened for MCH1R activity in the FLIPR® for both agonist and antagonist action. Agonist mode challenges were conducted at a maximum gradient concentration of 1 μM. Antagonist activity was tested by 10 min pre-incubation of cells at a compound concentration of defined to be 300× the EC50 of MCH (typically 1 μM), with subsequent introduction of MCH at a concentration 5-fold of EC50 as determined in preliminary experiments. […].
Several fixed concentrations of antagonist compounds were prepared in 10-fold increments, and presented to the cells in a gradient of increasing MCH concentration. Values for compound pA2 were calculated by linear regression of MCH EC50s as a function of antagonist concentration.

[6] = 100 nM or less list, read-out: IC50 in the rMCH binding assay
[7] = 100 μM or less list, read-out: IC50 in the rMCH binding assay
[8] = HEK 293 cells stably transfected with rat MCH1 receptor, 100 nM or less list, read-out: Ki in the HT-PS100 assay
[9] = 100 nM or less list, read-out: Ki in the hMCH FLIPR assay
[10] = 100 μM or less list, read-out: Ki in the hMCH FLIPR assay
[11] = 100 nM or less list, read-out: IC50 in the hMCH binding assay
[12] = 100 μM or less list, read-out: IC50 in the hMCH binding assay
[13] = 100 μM or less list, read-out: Ki in the rMCH FLIPR assay

T3 sequence (Q99705 whole entry): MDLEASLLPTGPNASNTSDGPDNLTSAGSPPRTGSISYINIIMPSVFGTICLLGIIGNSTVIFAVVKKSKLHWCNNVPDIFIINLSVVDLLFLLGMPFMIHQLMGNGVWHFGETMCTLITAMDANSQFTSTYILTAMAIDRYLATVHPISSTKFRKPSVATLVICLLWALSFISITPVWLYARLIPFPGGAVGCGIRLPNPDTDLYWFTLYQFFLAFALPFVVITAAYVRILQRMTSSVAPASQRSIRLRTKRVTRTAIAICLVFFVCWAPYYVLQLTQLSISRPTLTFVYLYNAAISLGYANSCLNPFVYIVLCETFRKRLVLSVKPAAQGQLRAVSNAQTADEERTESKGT
T4 sequence (Q99705 whole entry): as above
T1 sequence (P97639 whole entry): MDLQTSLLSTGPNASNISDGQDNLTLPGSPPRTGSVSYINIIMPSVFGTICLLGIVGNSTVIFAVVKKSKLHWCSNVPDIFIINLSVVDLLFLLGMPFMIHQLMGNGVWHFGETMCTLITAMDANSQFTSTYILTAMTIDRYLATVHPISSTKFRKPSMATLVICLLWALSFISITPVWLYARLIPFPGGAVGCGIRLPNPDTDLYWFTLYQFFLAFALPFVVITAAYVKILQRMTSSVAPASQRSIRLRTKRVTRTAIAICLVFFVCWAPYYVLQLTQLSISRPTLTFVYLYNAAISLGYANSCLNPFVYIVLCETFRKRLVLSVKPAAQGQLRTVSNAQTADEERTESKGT
T2 sequence (P97639 whole entry): as above

SMILES | pIC50 [1, 6] | pIC50 [1, 7] | pKi [2, 8] | pKi [3, 9] | pKi [3, 10] | pIC50 [4, 11] | pIC50 [4, 12] | pKi [5, 13] | pKi ([5]; 100 nM or less list, read-out: Ki in the rMCH FLIPR assay) | pIC50 ([1]; IC50 in the rMCH binding assay, 100 μM or less list) | pKi [2] | pKi ([3]; Ki in the hMCH FLIPR assay, 100 nM or less list) | pKi ([3]; Ki in the hMCH FLIPR assay, 100 μM or less list) | pIC50 ([4]; IC50 in the hMCH binding assay, 100 μM or less list) | pKi ([5]; Ki in the rMCH FLIPR assay, 100 μM or less list)
Cc1cccc(C)c1-n1nnnc1[C@H](c1ccc(OCc2ccccc2)cc1)N1CCN(C/C=C/c2ccccc2)CC1 (racemic) [Compound 70, 1-{(4-benzyloxyphenyl)-[1-(2,6-dimethylphenyl)-1H-tetrazol-5-yl]methyl}-4-(3-phenylallyl)piperazine] | ≥ 7.00 | ≥ 4.00 | ≥ 7.00 | ≥ 7.00 | ≥ 4.00 | ≥ 7.00 | ≥ 4.00 | ≥ 4.00 |  |  |  |  |  |  | 
Cc1cccc([C@@H](c2nnnn2-c2c(C)cccc2C)N2CCN(C/C=C/c3ccccc3)CC2)c1 (racemic) [Compound 61, 1-{[1-(2,6-dimethylphenyl)-1H-tetrazol-5-yl]-m-tolylmethyl}-4-(3-phenylallyl) piperazine] |  | ≥ 4.00 | ≥ 7.00 |  | ≥ 4.00 |  | ≥ 4.00 | ≥ 4.00 |  |  |  |  |  |  | 
Cc1cccc(C)c1-n1nnnc1[C@H](c1ccc(-c2ccccc2)cc1)N1CCN(C/C=C/c2ccccc2)CC1 (racemic) [Compound 64, 1-{biphenyl-4-yl-[1-(2,6-dimethylphenyl)-1H-tetrazol-5-yl]methyl}-4-(3-phenylallyl)piperazine] |  | ≥ 4.00 | ≥ 7.00 |  |  | ≥ 7.00 | ≥ 4.00 | ≥ 4.00 |  |  |  |  |  |  | 
Cc1cccc(C)c1-n1nnnc1[C@H](c1ccc(Cl)cc1)N1CCN(C/C=C/c2ccccc2)CC1 (racemic) [Compound 57, 1-{(4-chlorophenyl)-[1-(2,6-dimethyiphenyl)-1H-tetrazol-5-yl]methyl}-4-(3-phenylallyl)piperazine] |  | ≥ 4.00 | ≥ 7.00 |  | ≥ 4.00 |  | ≥ 4.00 | ≥ 4.00 |  |  |  |  |  |  | 
Cc1cccc(C)c1-n1nnnc1[C@H](c1cccs1)N1CCN(C/C=C/c2ccccc2)CC1 (racemic) [Compound 53, 1-{[1-(2,6-dimethyiphenyl)-1H-tetrazol-5-yl]thiophen-2-ylmethyl}-4-(3-phenylallyl)piperazine] |  | ≥ 4.00 | ≥ 7.00 | ≥ 7.00 | ≥ 4.00 |  | ≥ 4.00 | ≥ 4.00 |  |  |  |  |  |  | 
Cc1cccc(C)c1-n1nnnc1[C@H](c1cccc(O)c1)N1CCN(C/C=C/c2ccccc2)CC1 (racemic) [Compound 82, 3-{[1-(2,6-dimethylphenyl)-1H-tetrazol-5-yl]-[4-(3-phenylallyl)piperazin-1-yl]methyl}phenol] |  |  |  |  |  |  |  |  |  | ≥ 4.00 | ≥ 7.00 | ≥ 7.00 | ≥ 4.00 | ≥ 4.00 | ≥ 4.00
Cc1cccc(C)c1-n1nnnc1[C@H](c1cccc(F)c1)N1CCN(C/C=C/c2ccccc2)CC1 (racemic) [Compound 48, 1-[[1-(2,6-dimethyiphenyl)-1H-tetrazol-5-yl]-(3-fluorophenyl)methyl]-4-(3-phenylallyl)piperazine] |  | ≥ 4.00 | ≥ 7.00 | ≥ 7.00 | ≥ 4.00 |  | ≥ 4.00 | ≥ 4.00 |  |  |  |  |  |  | 
Cc1cccc(C)c1-n1nnnc1[C@H](c1cccc(C(F)(F)F)c1)N1CCN(C/C=C/c2ccccc2)CC1 (racemic) [Compound 56, 1-[[1-(2,6-dimethyiphenyl)-1H-tetrazol-5-yl]-(3-trifluoromethyiphenyl)methyl]-4-(3-phenylallyl)piperazine] | ≥ 7.00 | ≥ 4.00 | ≥ 7.00 | ≥ 7.00 | ≥ 4.00 | ≥ 7.00 | ≥ 4.00 | ≥ 4.00 | ≥ 7.00 |  |  |  |  |  | 
Cc1ccc([C@@H](c2nnnn2-c2c(C)cccc2C)N2CCN(C/C=C/c3ccccc3)CC2)cc1 (racemic) [Compound 55, 1-{[1-(2,6-dimethyiphenyl)-1H-tetrazol-5-yl]-p-tolylmethyl]-4-(3-phenylallyl)piperazine] |  | ≥ 4.00 | ≥ 7.00 | ≥ 7.00 | ≥ 4.00 | ≥ 7.00 | ≥ 4.00 | ≥ 4.00 |  |  |  |  |  |  | 
Cc1cccc(C)c1-n1nnnc1[C@H](c1ccc2ccccc2c1)N1CCN(C/C=C/c2ccccc2)CC1 (racemic) [Compound 62, 1-{[1-(2,6-dimethylphenyl)-1H-tetrazol-5-yl]naphthalen-2-ylmethyl}-4-(3-phenylallyl)piperazine] |  | ≥ 4.00 | ≥ 7.00 |  | ≥ 4.00 | ≥ 7.00 | ≥ 4.00 | ≥ 4.00 |  |  |  |  |  |  | 

Now from value to compound, other results behind:

pIC50 [1, 6] | pIC50 [1, 7] | pKi [2, 8] | pKi [3, 9] | pKi [3, 10] | pIC50 [4, 11] | pIC50 [4, 12] | pKi [5, 13] | pKi ([5]; 100 nM or less list, read-out: Ki in the rMCH FLIPR assay) | SMILES | pIC50 ([1]; IC50 in the rMCH binding assay, 100 μM or less list) | pKi [2] | pKi ([3]; Ki in the hMCH FLIPR assay, 100 nM or less list) | pKi ([3]; Ki in the hMCH FLIPR assay, 100 μM or less list) | pIC50 ([4]; IC50 in the hMCH binding assay, 100 μM or less list) | pKi ([5]; Ki in the rMCH FLIPR assay, 100 μM or less list)
 | ≥ 4.00 | ≥ 7.00 |  | ≥ 4.00 |  | ≥ 4.00 | ≥ 4.00 |  | Cc1cccc(C)c1-n1nnnc1[C@H](c1ccc2c(c1)OCO2)N1CCN(C/C=C/c2ccccc2)CC1 (racemic) [Compound 83, 1-{benzo[1,3]dioxol-5-yl-[1-(2,6-dimethylphenyl)-1H-tetrazol-5-yl]methyl}-4-(3-phenylallyl)piperazine] |  |  |  |  |  | 
≥ 7.00 | ≥ 4.00 | ≥ 7.00 |  | ≥ 4.00 | ≥ 7.00 | ≥ 4.00 | ≥ 4.00 |  | Cc1cccc(C)c1-n1nnnc1[C@H](c1cccc(OCCO)c1)N1CCN(C/C=C/c2ccccc2)CC1 (racemic) [Compound 84, 2-(3-{[1-(2,6-dimethylphenyl)-1H-tetrazol-5-yl]-[4-(3-phenylallyl)piperazin-1-yl]methyl}phenoxy)ethanol] |  |  |  |  |  | 
 | ≥ 4.00 | ≥ 7.00 |  | ≥ 4.00 | ≥ 7.00 | ≥ 4.00 | ≥ 4.00 |  | Cc1cccc(C)c1-n1nnnc1[C@H](c1ccc(-n2ccnc2)cc1)N1CCN(C/C=C/c2ccccc2)CC1 (racemic) [Compound 78, 1-[[1-(2,6-dimethylphenyl)-1H-tetrazol-5-yl]-(4-imidazol-1-ylphenyl)methyl]-4-(3-phenylallyl)piperazine] |  |  |  |  |  | 
≥ 7.00 | ≥ 4.00 | ≥ 7.00 | ≥ 7.00 | ≥ 4.00 |  | ≥ 4.00 | ≥ 4.00 |  | Cc1cccc(C)c1-n1nnnc1[C@H](c1cccc(C#N)c1)N1CCN(C/C=C/c2ccccc2)CC1 (racemic) [Compound 79, 3-{[1-(2,6-dimethylphenyl)-1H-tetrazol-5-yl]-[4-(3-phenylallyl)piperazin-1-yl]methyl}benzonitrile] |  |  |  |  |  | 
 | ≥ 4.00 | ≥ 7.00 |  |  | ≥ 7.00 | ≥ 4.00 | ≥ 4.00 |  | Cc1cccc(C)c1-n1nnnc1[C@H](c1ccc(Oc2ccccc2)cc1)N1CCN(C/C=C/c2ccccc2)CC1 (racemic) [Compound 76, 1-[[1-(2,6-dimethylphenyl)-1H-tetrazol-5-yl]-(4-phenoxyphenyl)methyl]-4-(3-phenylallyl)piperazine] |  |  |  |  |  | 
